Data from paper PMC9166630, “SAR Probing of KX2-391 Provided Analogues With Juxtaposed Activity Profile Against Major Oncogenic Kinases” (Frontiers in Oncology, 2022).

Key:
Yes = assay: PamChip tyrosine kinase microarray, Yes; assay type: biochemical, human; settings: 4e 0.1 µM, HL60 lysate
Experimental: (§1) The changes in kinase activities induced by treatment with 4e were monitored within the HL60 cell lines using PamGene’s (Hertogenbosch, Netherlands) PamChip® peptide microarray profiler, which quantifies the activities of 144 tyrosine kinases (YK) ([29], [30]) (Figure 7). Results are provided as a log fold change (LFC) heatmap and Mean Kinase Statistic. From the LFC it is apparent that compound 4e, at a concentration of 0.1 µM, induced sizable changes to the activity of several kinases within the cell signaling YK profile (Figure 7A).
(§2) An Upstream Kinase tool was used to generate a putative list of kinases responsible for phosphorylating the phospho-sites on the PamChip (Figure 7B) ([31]). It is an interpretation and is highly dependent on the contents of the underlying phosphorylation databases. A Kinase Score was used for ranking kinases based on their significance and specificity in terms of the set of peptides used for the corresponding kinase. Kinase Statistics indicates the overall change of the peptide set that represents the kinase. Kinase statistics value <0 indicates lower kinase activity in the compound spiked lysate and vice versa ([32], [33]). Table 5 lists the 20 most changed kinases within treated HL60 cell lysates by 0.1 μM 4e, ranked according to their Kinase Score.
(§3) The two multiple-kinase tests (PamChip and Phosphokinase Profiler) provided strong evidence of very minor involvement of Src in the cellular activities of 4e. However, the question must be raised about the effect of the 4e on other SRC family kinase (SFK). To address this point, we must highlight that both R&D phosphokinase profiler and PamChip feature Yes, Fgr, Lyn, Lck and Src while Fyn, Hck, Blk and Frk activities are tested in the PamChip only. The signals of SFKs in the R&D Phosphokinase Profiler were too weak to detect in both untreated (control) and 4e-treated HL60 cells. In PamChip assay, most of SFK’s were not ranked in the top 20 affected kinases (Table 5). In addition, their Specificity Score were very low (Table 6) indicating their marginal importance to the cell killing activities of 4e. Fgr kinase which ranked 7th in the list (Table 5) was the only SFK member that seems to be affected by the compound, albeit with low Specificity Score (1.03).
(§4) The compound 4e was spiked into HL60 cell lysate at different concentrations (0.001, 0.01, 0.1, 1, 10 and 50 μM). In addition, DMSO was also spiked in HL60 lysate at low concentration (2% v/v) as control. Samples were profiled on PamGene’s Tyrosine Kinase (PTK) arrays in technical replicates, covering a total of 196 phosphorylation sites. Frozen HL60 cultured cell pellet was sent to PamGene. […] Protein concentration was measured using standard Bradford assay as per PamGene SOPs. […]

Fes = molecular target: T1, Fes (Homo sapiens, UniProt P07332); assay: PamChip tyrosine kinase microarray, Fes; assay type: biochemical; settings: 4e 0.1 µM, HL60 lysate
T1 construct: endogenous in cells; host or cells: HL60 lysate
Experimental: as §1, §2
(§5) The compound 4e was spiked into HL60 cell lysate at different concentrations (0.001, 0.01, 0.1, 1, 10 and 50 μM). In addition, DMSO was also spiked in HL60 lysate at low concentration (2% v/v) as control. Samples were profiled on PamGene’s Tyrosine Kinase (PTK) arrays in technical replicates, covering a total of 196 phosphorylation sites. Frozen HL60 cultured cell pellet was sent to PamGene. At PamGene, cells were lysed using a lysis buffer and proteases inhibitors cocktail. Protein concentration was measured using standard Bradford assay as per PamGene SOPs. These lysates were further used for generating the PTK activity profiles. For spiking, 4e was received as powder form and dissolved in DMSO at PamGene facility followed by storing at -20°C in small aliquots. PamGene used its in-house bioinformatics toolbox in combination with other methods to generate hypotheses of signaling pathways.

Frk = assay: PamChip tyrosine kinase microarray, Frk; assay type: biochemical, human; settings: 4e 0.1 µM, HL60 lysate
Experimental: as §1, §2, §3, §4

[1] = tested on: N87 (stomach) cancer cells; assay: SRB cytotoxicity assay, N87; assay type: cell-based; settings: Homo sapiens, 72 h, maximum tested concentration 50 µM, read-out: IC50 ± SEM, N87
Experimental: MCF7 (breast) or N87 (stomach) cancer cells were grown in Roswell Park Memorial Institute-1640 (RPMI-1640) medium (Thermo Fisher Scientific, Inc; Waltham, MA, USA), supplemented with 10% heat inactivated fetal bovine serum (FBS), 50 units/mL of penicillin and […] of streptomycin and maintained at 37°C in a humidified atmosphere containing 5% CO2. The cells were maintained as “monolayer culture” by serial subculturing.
Cytotoxicity was determined using Sulforhodamine B (SRB) method as previously described by Skehan et al. ([66]). Exponentially growing MCF7 and N87 cells were collected using 0.25% Trypsin-EDTA and were then seeded in 96-well plates at a density of 1000-2000 cells/well in 10% FBS and penicillin/streptomycin supplemented RPMI-1640 medium. After 24 h, cells were treated with different concentrations of test compounds and incubated for 72 h at 37°C in a humidified atmosphere containing 5% CO2. Next, the cells were fixed by adding trichloroacetic acid (TCA, 10% final conc. in wells) directly to the wells and incubated for 1 h at 4°C, then cells were washed with distilled water 5 times to remove excess TCA, media, serum proteins, and metabolites, followed by air drying. After that, the fixed cells were stained with 0.4% SRB dissolved in 1% acetic acid for 10 min at room temperature, and excess stain was removed by quickly rinsing with 1% acetic acid. The residual acetic acid was removed completely by air drying the plates for 24 h, and the dye was solubilized with Tris buffer (pH= 7.4, 10 mM) for 5 min on a shaker at 1600 rpm. The optical density (OD) of each well was measured spectrophotometrically at 564 nm with an ELISA microplate reader (ChroMate-4300, FL, USA). The IC50 values (concentration of drug resulting in 50% reduction in cell survival) were calculated according to the equation for Boltzman sigmoidal concentration–response curve using the nonlinear regression fitting models (Graph Pad, Prism Version 5).

Hck = assay: PamChip tyrosine kinase microarray, Hck; assay type: biochemical, human; settings: 4e 0.1 µM, HL60 lysate
Experimental: as §1, §2, §3, §4

CSK = molecular target: T2, CSK (Homo sapiens, UniProt P41240); assay: PamChip tyrosine kinase microarray, CSK; assay type: biochemical; settings: 4e 0.1 µM, HL60 lysate
T2 construct: endogenous in cells; host or cells: HL60 lysate
Experimental: as §1, §2, §5

T2 sequence (P41240 whole entry): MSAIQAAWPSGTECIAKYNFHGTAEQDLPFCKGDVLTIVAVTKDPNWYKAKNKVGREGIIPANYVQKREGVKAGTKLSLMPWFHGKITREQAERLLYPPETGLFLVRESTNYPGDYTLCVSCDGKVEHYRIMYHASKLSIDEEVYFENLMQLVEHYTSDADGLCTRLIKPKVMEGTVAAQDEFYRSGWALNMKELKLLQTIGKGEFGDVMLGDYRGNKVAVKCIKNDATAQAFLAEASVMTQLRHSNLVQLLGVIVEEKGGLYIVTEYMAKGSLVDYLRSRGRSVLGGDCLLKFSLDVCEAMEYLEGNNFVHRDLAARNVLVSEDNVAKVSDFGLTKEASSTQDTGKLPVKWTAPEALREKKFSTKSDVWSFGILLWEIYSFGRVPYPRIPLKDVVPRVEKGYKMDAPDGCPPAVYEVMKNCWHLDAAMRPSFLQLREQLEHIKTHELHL
T1 sequence (P07332 whole entry): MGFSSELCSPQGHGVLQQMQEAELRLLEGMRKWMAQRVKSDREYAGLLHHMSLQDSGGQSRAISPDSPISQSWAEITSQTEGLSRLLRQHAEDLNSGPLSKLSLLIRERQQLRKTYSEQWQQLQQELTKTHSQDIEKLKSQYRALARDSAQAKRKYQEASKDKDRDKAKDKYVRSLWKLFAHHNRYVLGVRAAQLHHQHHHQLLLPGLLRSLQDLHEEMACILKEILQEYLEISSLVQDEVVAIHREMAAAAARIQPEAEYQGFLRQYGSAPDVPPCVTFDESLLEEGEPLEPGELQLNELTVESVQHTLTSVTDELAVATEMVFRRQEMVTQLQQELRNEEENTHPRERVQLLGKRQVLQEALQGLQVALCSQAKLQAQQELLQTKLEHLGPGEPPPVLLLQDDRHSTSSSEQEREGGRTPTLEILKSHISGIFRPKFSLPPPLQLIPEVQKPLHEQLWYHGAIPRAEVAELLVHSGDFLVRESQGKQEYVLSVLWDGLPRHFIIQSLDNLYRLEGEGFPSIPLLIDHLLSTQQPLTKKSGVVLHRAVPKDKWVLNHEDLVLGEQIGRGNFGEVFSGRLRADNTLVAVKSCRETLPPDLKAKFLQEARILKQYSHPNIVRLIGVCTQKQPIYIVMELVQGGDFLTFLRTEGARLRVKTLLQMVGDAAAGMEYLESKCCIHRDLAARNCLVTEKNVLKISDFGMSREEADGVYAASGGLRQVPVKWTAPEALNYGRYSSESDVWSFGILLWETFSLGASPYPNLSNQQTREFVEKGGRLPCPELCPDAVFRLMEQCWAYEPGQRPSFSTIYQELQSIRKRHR

SMILES: O=C(Cc1ccc(NC(=O)c2cccc(Cl)c2)cc1)NCc1ccccc1 [Compound 4e, N-(4-(2-(benzylamino)-2-oxoethyl)phenyl)-3-chlorobenzamide]
- Mean Final Score (Yes): 1.1516
- Mean Kinase Statistic (Yes): -0.4139
- Mean Significance Score (Yes): 1.0126
- Mean Specificity Score (Yes): 0.1390
- Mean Final Score (Fes): 2.3241
- Mean Kinase Statistic (Fes): -0.6958
- Mean Significance Score (Fes): 1.2140
- Mean Specificity Score (Fes): 1.1101
- Mean Final Score (Frk): 1.6587
- Mean Kinase Statistic (Frk): -0.5116
- Mean Significance Score (Frk): 1.1484
- Mean Specificity Score (Frk): 0.5102
- IC50 [1]: 5.28 ± 0.91 µM
- Mean Final Score (Hck): 1.0872
- Mean Kinase Statistic (Hck): -0.4497
- Mean Significance Score (Hck): 0.8248
- Mean Specificity Score (Hck): 0.2624
- Mean Final Score (CSK): 1.9356
- Mean Kinase Statistic (CSK): -0.5346
- Mean Significance Score (CSK): 1.2107
- Mean Specificity Score (CSK): 0.7249
